Data set [1] relates to actinic erythema induced by UVA+B irradiation. The experiment in a line: Reduction of actinic erythema induced by UVA+B irradiation, double blind test with placebo, visual reading. Conditions: when solubilized beforehand in PEG 300. Type of data set: in vivo, healthy volunteers. On the procedure: The placebo (P1) and the active products (P2), (P3) and (P4) were thus used to carry out this test.
Several steps were followed: • Preliminary step: Evaluation of the individual Minimum Erythemal Dose (MEDi). • First step: Application of products P1 to P4 to a 35 cm^2 surface. The quantity applied is exactly 4 mg/cm^2. The zones for applying the products are modified by rotation from one volunteer to another. • Second step: Irradiation of the treated zones and of one untreated zone (control zone) fifteen minutes after application of the products, by positioning the MEDi at the third hole. • Third steps: Visual readings of the erythema 6 and 24 hours after the irradiation. a.) Choice of the Subjects […]
Beforehand, with the same apparatus, the individual MED of each subject was determined on the top of the back. […]
The irradiation times for the treated zones and for the untreated zone are determined so as to place the MEDi at the third hole.
The administered UV doses are calculated with the aid of a calibrated ROBERTSON-BERGER dosimeter equipped with a UVB reading head. The results are expressed directly as values read on the dosimeter and expressed as MED (1 MED=25 mJ/cm^2). […]
A numerical quantification corresponding to the degree of erythema is performed according to the following table: […]

Data set [2] in a line: Tests of solubility of genistein in polyethylene glycols or their ethoxylated homologs (HPLC assay). Conditions: for Genistein assayed (% by weight in the solution): room temperature, stirred 30 minutes.
Experimental: Tests of Solubility of Genistein in Polyethylene Glycols or Their Ethoxylated Homologs Procedure:
The quantity of genistein used in powdered form is accurately weighed in a 250 ml beaker. A precise quantity of excipient is then added. The mixture is then vigorously stirred (mechanical stirring) at room temperature for 30 minutes. The product is then directly assayed according to the protocol described below.
The assay of genistein is carried out by reverse phase high-performance liquid chromatography (C18 stationary phase—acetic acid/acetonitrile mobile phase) and detection by UV spectrophotometry (absorption maximum of the compound).
[3] abbreviates: excipient PEG 200, genistein used 12.0% by weight.
[4] abbreviates: excipient PEG 300, genistein used 8.0% by weight.
Where [5] appears, read: excipient PEG 300, genistein used 10.0% by weight.
[6] abbreviates: excipient PEG 300, genistein used 12.0% by weight.
[7] abbreviates: excipient PEG 400, genistein used 12.0% by weight.
Where [8] appears, read: excipient PEG 600, genistein used 12.0% by weight.

Regarding `O=c1c(-c2ccc(O)cc2)coc2cc(O)cc(O)c12` [Genistein], the “Antierythemal activity of genistein” value in data set [1] is “increased”. In data set [2] (PEG 300), the “Concentration at which genistein can be incorporated, in soluble form, into PEG 300” value was ~12 % by weight relative to the total weight of the solution. Also, the “Genistein assayed (% by weight in the solution)” value in data set [2] (excipient Laureth 11 (oxyethylenated C12 alcohol), genistein used 12.0% by weight) is recorded as 9.5 % by weight in the solution; in data set [2] (excipient Liponic EG1 (ethoxylated glycerol), genistein used 10.0% by weight), 9.1 % by weight in the solution; in data set [2] (setting [3]), 10.9 % by weight in the solution; in data set [2] (setting [4]), 7.6 % by weight in the solution; in data set [2] (setting [5]), 9.3 % by weight in the solution; in data set [2] (setting [6]), 11.2 % by weight in the solution. The “Genistein assayed (% by weight in the solution)” value in data set [2] (setting [7]) is recorded as 10.1 % by weight in the solution; in data set [2] (excipient PEG400 dilaurate (fatty diester of PEG), genistein used 12.0% by weight), 9.5 % by weight in the solution; in data set [2] (setting [8]) it was 10.7 % by weight in the solution. Besides, the Solubility entry is listed as “high” in data set [2] (excipient Laureth 11, genistein used 12.0% by weight); “high” in data set [2] (excipient Liponic EG1, genistein used 10.0% by weight); “high” in data set [2] (setting [3]); “high” in data set [2] (setting [4]); “high” in data set [2] (setting [5]); “high” in data set [2] (setting [6]). Besides, the Solubility result in data set [2] (setting [7]) was “high”; in data set [2] (excipient PEG400 dilaurate, genistein used 12.0% by weight), “high”; in data set [2] (setting [8]), “high”.

Source of the values: patent US7763647B2, “Topical solution containing a chromane or chromene derivative” (Laboratories Expanscience, priority 2001, dated 2010).
